Experimental data reported in PMC5943947 (Molecules : A Journal of Synthetic Chemistry and Natural …, 2017).

Experiments:
B16 cell line = assay: In vitro antiproliferative activity, MTT assay, B16; format: cell-based; conditions: Mus musculus, 48 h
Procedure: (§1) HCT116, MCF-7 and B16 cell lines were plated on 96-well plates at a density of 5000 per well and incubated overnight. […] After 48 h, 0.5% MTT (Amresco, Solon, OH, USA) solution was added to each well, and further incubation for 4 h, then cells were centrifuged at 2500 rpm for 15 min and removed from the culture medium. And add 150 μL DMSO to dissolve the formazan. After mixing for 5 min, optical density was detected at 570 nm on a microplate reader (Thermo, Waltham, MA, USA).

VEGFR-2 = VEGFR-2 (Homo sapiens, UniProt P35968); assay: VEGFR-2 inhibitory assay (caliper mobility shift assay)
Sequence of VEGFR-2 (P35968 20-1356): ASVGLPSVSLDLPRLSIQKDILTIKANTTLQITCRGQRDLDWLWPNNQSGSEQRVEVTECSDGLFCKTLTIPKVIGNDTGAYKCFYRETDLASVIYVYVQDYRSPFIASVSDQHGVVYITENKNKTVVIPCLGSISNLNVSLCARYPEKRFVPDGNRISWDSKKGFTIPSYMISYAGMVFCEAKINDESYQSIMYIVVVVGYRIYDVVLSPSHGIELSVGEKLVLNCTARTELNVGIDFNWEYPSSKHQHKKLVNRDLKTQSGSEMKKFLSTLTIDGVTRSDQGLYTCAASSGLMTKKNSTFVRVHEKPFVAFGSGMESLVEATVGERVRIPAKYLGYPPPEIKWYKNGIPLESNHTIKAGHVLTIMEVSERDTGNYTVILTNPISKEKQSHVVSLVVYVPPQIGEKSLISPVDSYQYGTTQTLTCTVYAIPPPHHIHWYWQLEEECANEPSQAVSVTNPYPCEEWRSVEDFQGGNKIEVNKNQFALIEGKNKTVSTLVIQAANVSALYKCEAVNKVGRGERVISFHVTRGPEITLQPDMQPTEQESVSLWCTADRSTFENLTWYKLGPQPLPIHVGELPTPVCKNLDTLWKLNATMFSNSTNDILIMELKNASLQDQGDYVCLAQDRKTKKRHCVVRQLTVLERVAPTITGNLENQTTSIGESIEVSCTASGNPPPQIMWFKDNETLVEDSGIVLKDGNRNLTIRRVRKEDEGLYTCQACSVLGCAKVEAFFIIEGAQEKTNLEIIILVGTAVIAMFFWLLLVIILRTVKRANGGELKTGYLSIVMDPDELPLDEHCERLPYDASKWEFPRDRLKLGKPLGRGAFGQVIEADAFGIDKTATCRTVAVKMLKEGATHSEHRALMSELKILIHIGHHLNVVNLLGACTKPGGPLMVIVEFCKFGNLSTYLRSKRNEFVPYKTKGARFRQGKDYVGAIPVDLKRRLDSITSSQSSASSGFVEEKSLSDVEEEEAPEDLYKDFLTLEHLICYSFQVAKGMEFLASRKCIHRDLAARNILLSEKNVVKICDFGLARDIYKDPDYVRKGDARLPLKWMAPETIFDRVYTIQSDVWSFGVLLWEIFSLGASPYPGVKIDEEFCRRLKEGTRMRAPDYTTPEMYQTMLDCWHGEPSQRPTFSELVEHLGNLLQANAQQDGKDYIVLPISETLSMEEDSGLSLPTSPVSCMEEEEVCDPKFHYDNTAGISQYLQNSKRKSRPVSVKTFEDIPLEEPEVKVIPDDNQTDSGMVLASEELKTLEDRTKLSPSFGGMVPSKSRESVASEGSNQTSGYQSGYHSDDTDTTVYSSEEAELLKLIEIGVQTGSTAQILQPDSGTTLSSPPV
Procedure: (§3) Each of these compounds was dissolved in DMSO at 10 mM, diluted to 50× of the final desired highest inhibitor concentration in reaction by 100% DMSO, and 100 μL of each dilution was added to one well on 96-well storage plate, and diluted by transferring 10 μL to 90 μL of 100% DMSO in the next well. Besides, 100 μL of 100% DMSO was added to two empty wells for no compound control and no enzyme control in the same 96-well plate respectively. The plate was marked as source plate. 10 μL of each compound was transferred from the source plate to a new 96-well plate, which was marked as the intermediate plate. Next, 90 μL of 1× kinase base buffer was added to each well of the intermediate plate, and mixed by shaking vigorously for 10 min. A total of 5 μL of each well from the 96-well intermediate plate was transferred to a 384-well plate in duplicate.
(§4) Kinase reaction: kinase in 1× kinase base buffer, FAM-labeled peptide and ATP in the 1× kinase base buffer were added, then 10 μL of 2.5× enzyme solution was added to each well of the 384-well assay plate. After incubating at room temperature for 10 min, 10 μL of 2.5× peptide solution was added to each well of the 384-well assay plate. […] Finally, the kinase reactions were quenched with 25 μL of EDTA and the plates were washed. The dates were collected and converted with the caliper program.

EGFR = EGFR (Homo sapiens, UniProt P00533); assay: EGFR inhibitory assay (caliper mobility shift assay)
Sequence of EGFR (P00533 25-1210): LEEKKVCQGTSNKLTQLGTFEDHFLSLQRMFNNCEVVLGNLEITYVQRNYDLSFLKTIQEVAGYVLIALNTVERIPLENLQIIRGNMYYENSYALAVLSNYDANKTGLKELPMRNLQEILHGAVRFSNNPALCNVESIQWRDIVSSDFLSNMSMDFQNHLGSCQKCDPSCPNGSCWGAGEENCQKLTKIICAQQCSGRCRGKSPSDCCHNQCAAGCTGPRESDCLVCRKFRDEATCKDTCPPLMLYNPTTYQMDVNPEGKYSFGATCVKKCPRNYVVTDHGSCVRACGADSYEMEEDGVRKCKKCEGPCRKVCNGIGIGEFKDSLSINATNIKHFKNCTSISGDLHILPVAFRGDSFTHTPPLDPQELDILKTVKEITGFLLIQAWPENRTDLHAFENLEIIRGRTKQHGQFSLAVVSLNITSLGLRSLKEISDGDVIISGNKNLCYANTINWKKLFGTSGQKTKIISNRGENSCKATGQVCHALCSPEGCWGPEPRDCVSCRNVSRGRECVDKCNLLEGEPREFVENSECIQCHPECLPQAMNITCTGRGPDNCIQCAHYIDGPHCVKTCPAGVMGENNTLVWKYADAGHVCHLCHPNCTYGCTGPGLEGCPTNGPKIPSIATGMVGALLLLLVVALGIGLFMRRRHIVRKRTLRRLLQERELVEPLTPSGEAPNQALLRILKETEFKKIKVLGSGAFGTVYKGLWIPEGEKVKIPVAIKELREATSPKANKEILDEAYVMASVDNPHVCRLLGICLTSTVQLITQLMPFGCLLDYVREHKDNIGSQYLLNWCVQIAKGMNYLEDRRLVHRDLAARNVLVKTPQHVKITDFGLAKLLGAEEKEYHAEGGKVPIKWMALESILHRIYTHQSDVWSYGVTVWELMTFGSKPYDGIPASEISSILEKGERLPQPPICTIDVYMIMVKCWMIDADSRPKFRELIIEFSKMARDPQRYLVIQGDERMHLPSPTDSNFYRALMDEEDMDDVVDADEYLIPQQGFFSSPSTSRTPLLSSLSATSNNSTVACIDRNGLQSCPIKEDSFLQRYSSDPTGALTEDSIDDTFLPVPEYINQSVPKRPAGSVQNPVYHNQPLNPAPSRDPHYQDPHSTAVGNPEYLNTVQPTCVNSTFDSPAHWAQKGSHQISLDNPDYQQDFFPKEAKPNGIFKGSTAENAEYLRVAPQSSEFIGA
Procedure: as §3, §4

HCT116 cell line = assay: In vitro antiproliferative activity, MTT assay, HCT116; format: cell-based; conditions: Homo sapiens, HCT-116, 48 h
Procedure: as §1

MCF-7 cell line = assay: In vitro antiproliferative activity, MTT assay, MCF-7; format: cell-based; conditions: Homo sapiens, MCF7, 48 h
Procedure: as §1

[1] = Body weight in B16 melanoma xenograft model; format: in vivo; conditions: B16 tumor-bearing C57BL/6J mice
Procedure: (§2) Male C57BL/6J mice were employed to establish the xenograft tumor model by subcutaneous injection (S.C.) of 6 × 10^6 B16 cells. […] In the end of treatment, the mice were sacrificed and the tumor were peeled off and weighted. The inhibition rate of tumor growth was calculated. All animal protocols were conformed to the Guidelines for the Care and Use of Laboratory Animals approved by the Animal Care and Use Committee of Yantai University.

B16 melanoma xenograft = assay: In vivo antitumor activity, B16 melanoma xenograft model; conditions: 90 mg/kg for 14 days (text: orally; table footnote: i.p.), C57BL/6J mice
Procedure: as §2

Compound | melting point [°C] | IC50 (B16 cell line) [µM] | IC50 (VEGFR-2) [µM] | IC50 (EGFR) [µM] | IC50 (HCT116 cell line) [µM] | IC50 (MCF-7 cell line) [µM] | Body Weight End ([1]; 90 mg/kg for 14 days, end of treatment) [g] | Body Weight Initial ([1]; 90 mg/kg, before treatment) [g] | Inhibition Rate of tumor growth (B16 melanoma xenograft) [%] | Tumor Weight (B16 melanoma xenograft) [g]
COc1cc2ncnc(Oc3cccc(NC(=S)Nc4ccc(F)c(C(F)(F)F)c4)c3)c2cc1OC [Compound 10a, 1-[3-(6,7-Dimethoxyquinazolin-4-yloxy)phenyl]-3-(4-fluoro-3-trifluoromethylphenyl)thiourea] | 130.5 to 133 | 16.9 | 0.19 | 0.04 | 37.4 | 38.1 |  |  |  | 
COc1cc2ncnc(Oc3cccc(NC(=S)Nc4ccc(Cl)c(C(F)(F)F)c4)c3)c2cc1OC [Compound 10b, 1-(4-Chloro-3-trifluoromethylphenyl)-3-[3-(6,7-dimethoxyquinazolin-4-yloxy)phenyl]thiourea] |  | 6.11 | 0.05 | 0.02 | 9.13 | 17.7 | 19.5 ± 3.0 | 18.9 ± 1.8 | 49.22 | 0.65 ± 0.22
COc1cc2ncnc(Oc3cccc(NC(=S)Nc4ccc(Br)c(C(F)(F)F)c4)c3)c2cc1OC [Compound 10c, 1-(4-Bromo-3-trifluoromethylphenyl)-3-[3-(6,7-dimethoxyquinazolin-4-yloxy)phenyl]thiourea] |  | 9.68 | 0.18 | 0.05 | 10 | 22.4 |  |  |  | 
COc1cc2ncnc(Oc3cccc(NC(=S)Nc4cc(C(F)(F)F)cc(C(F)(F)F)c4)c3)c2cc1OC [Compound 10d, 1-(3,5-Ditrifluoromethylphenyl)-3-[3-(6,7-dimethoxyquinazolin-4-yloxy)phenyl]thiourea] | 122.8 to 125.6 | 8.49 |  |  | 15 | 18.8 |  |  |  | 
COc1cc2ncnc(Oc3cccc(NC(=S)Nc4cccc(C(F)(F)F)c4)c3)c2cc1OC [Compound 10e, 1-(3-Trifluoromethylphenyl)-3-[3-(6,7-dimethoxyquinazolin-4-yloxy)phenyl]thiourea] | 147.5 to 149.6 | 14.8 | 0.35 | 0.14 | 12.2 | 13.3 |  |  |  | 
COc1cc2ncnc(Oc3cccc(NC(=S)Nc4ccc(OC(F)(F)F)cc4)c3)c2cc1OC [Compound 10f, 1-(4-Trifluoromethoxyphenyl)-3-[3-(6,7-dimethoxyquinazolin-4-yloxy)phenyl]thiourea] | 171.5 to 174 | 54 | > 10 | > 10 | 58.6 | 18.8 |  |  |  | 
COc1cc2ncnc(Oc3cccc(NC(=S)Nc4ccc(Cl)cc4Cl)c3)c2cc1OC [Compound 10g, 1-(2,4-Dichlorophenyl)-3-[3-(6,7-dimethoxyquinazolin-4-yloxy)phenyl]thiourea] | 187.4 to 188.2 | 24.5 | > 10 | 7.71 | 19.8 | 17.1 |  |  |  | 
COc1cc2ncnc(Oc3cccc(NC(=S)Nc4ccc(F)c(F)c4)c3)c2cc1OC [Compound 10h, 1-(3,4-Difluorophenyl)-3-[3-(6,7-dimethoxyquinazolin-4-yloxy)phenyl]thiourea] | 181.3 to 184.1 | 19.4 | 7.06 | 4.88 | 49.5 | 16 |  |  |  | 
COc1cc2ncnc(Oc3cccc(NC(=S)Nc4ccc(Cl)cc4)c3)c2cc1OC [Compound 10i, 1-(4-Chlorophenyl)-3-[3-(6,7-dimethoxyquinazolin-4-yloxy)phenyl]thiourea] | 198.3 to 201 | 27.4 | > 10 | 4.17 | > 100 | 22.1 |  |  |  | 
COc1cc2ncnc(Oc3cccc(NC(=S)Nc4ccc(F)cc4)c3)c2cc1OC [Compound 10j, 1-(4-Fluorophenyl)-3-[3-(6,7-dimethoxyquinazolin-4-yloxy)phenyl]thiourea] | 168.5 to 170 | 34.1 | 7.11 | 5.9 | 89.7 | 23.6 |  |  |  | 
COc1cc2ncnc(Oc3cccc(NC(=S)Nc4ccc(C)cc4)c3)c2cc1OC [Compound 10k, 1-p-tolyl-3-[3-(6,7-dimethoxyquinazolin-4-yloxy)phenyl]thiourea] | 138.4 to 140 | > 100 | > 10 | > 10 | > 100 | 26.5 |  |  |  | 
